Laboratory results: patent publication US9114149B2, “[CU(thp)4]n[X]-n compounds for the treatment of a broad range of human solid tumors, including refractory tumors” (Universita Degli Studi Di Padova, priority 2011, dated 2015)
Values joined by “and” are separate entries in the source; they are usually repeats but may differ in a detail not shown here. Equal values may be shown once. Marks after values point to notes of the source that are not given here.

Assays:
AsPC-1 = assay: MTT cytotoxicity, AsPC-1 (pancreas); format: cell-based, human; conditions: MTT test, 72 hrs
Description: (§1) The in vitro antitumor activity of CP had been deeply evaluated in several human cancer cell lines by in vitro cytotoxicity assays. CP cytotoxicity has been detected in a large panel of human cell lines derived from a wide variety of solid tumors, including refractory tumors. In Table 1, the cytotoxicity parameters IC50 (that is the median growth inhibitory concentrations calculated from dose-survival curves via MTT test) are tabulated.
(§2) Cell lines representative of lung (H157, U1810, U1285, Calu-1), pancreas (MIA PaCa-2, BxPC-3, AsPC-1, Capan-1), liver (Huh-7, Hep 3B, SK-Hep-1), oesophagus (OE33, OE21), oesophagus/gastric cardia (OE19), stomach (BGC-823, AGS), colon (HCT-116, T84, COLO 205), breast (MDA-MB-231, SK-BR-3), cervix (CaSki, C-33 A) ovarian (A2780, SK-OV-3, IGROV1), prostate (LnCaP, PC-3) cancers along with melanoma (MEWO, G361, C-32), neuroblastoma (SH-SY5Y, SK-N-AS, IMR-32) and osteosarcoma (U-2 OS, MG-63) have been treated with increasing concentration of CP for 72 hrs.

T84 = assay: MTT cytotoxicity, T84 (colon); format: cell-based, human; conditions: MTT test, 72 hrs
Description: as §1, §2

C-33 A = assay: MTT cytotoxicity, C-33 A (cervix); format: cell-based, human; conditions: MTT test, 72 hrs
Description: as §1, §2

Huh-7 = assay: MTT cytotoxicity, Huh-7 (liver); format: cell-based, human; conditions: MTT test, 72 hrs
Description: as §1, §2

[1] = system: human colon adenocarcinoma cells resistant (HCT-116 OXP) to OXP
[2] = system: human leukemic cell lines; assay: Cytotoxicity against human leukemic cell lines; format: cell-based; conditions: several human leukemic cell lines
Description: (§3) The detection of drug uptake by tumor cells in animal models clearly attest that CP efficiently and selectively accumulates in the solid tumor mass.

MDA-MB-231 = assay: MTT cytotoxicity, MDA-MB-231 (breast); format: cell-based, human; conditions: MTT test, 72 hrs
Description: as §1, §2

MG-63 = assay: MTT cytotoxicity, MG-63 (bone); format: cell-based, human; conditions: MTT test, 72 hrs
Description: as §1, §2

IGROV1 = assay: MTT cytotoxicity, IGROV1 (ovary); format: cell-based, human; conditions: MTT test, 72 hrs
Description: as §1, §2

CaSki = assay: MTT cytotoxicity, CaSki (cervix); format: cell-based, human; conditions: MTT test, 72 hrs
Description: as §1, §2

SK-N-AS = assay: MTT cytotoxicity, SK-N-AS (brain); format: cell-based, human; conditions: MTT test, 72 hrs
U1285 = assay: MTT cytotoxicity, U1285 (lung); format: cell-based, human; conditions: MTT test, 72 hrs
Description: as §1, §2

[3] = system: human colon adenocarcinoma cells sensitive (HCT-116); assay: Cross resistance MTT test, HCT-116 (OXP sensitive); format: cell-based; conditions: 72 h, probit analysis
[4] = system: human cancer versus human normal cells
L1210 murine leukemia = assay: Antitumor efficacy in murine leukemia; format: in vivo; conditions: established animal leukaemia
Method: as §3
The antitumor efficacy of CP was evaluated in L1210 murine leukemia and in mouse Lewis Lung carcinoma (LLC).

[5] = system: Lewis lung carcinoma (LLC); assay: Advanced-stage treatment (2) of LLC-bearing mice; format: in vivo, C57BL mice; conditions: advanced-stage (2); for Average tumor weight (mean ± S.D.): day 15; for Inhibition of tumor growth: day 15, referred to control
Method: Body weight was measured at day 1 and every two days from day 9 and was taken as a parameter of systemic toxicity. The X axis indicates the days after transplantation whereas the Y axis indicates the percentage of body weight changes. […] The error bars indicate the SD.
The complete disappearance of primary tumors in these mice was confirmed by dissection on day 15.
The in vivo antitumor activity of CP in LLC tumor model has been further investigated by means of other protocols, such as advanced-stage treatment (1), and advanced-stage treatment (2). For upstaged or advanced stage disease, LLC tumors were allowed to establish and grow to visible (advanced-stage treatment 1) and palpable (advanced-stage treatment 2) size before the start of chemotherapy. The results shown in Table 8 and 9, attested that CP was efficacious even at the lowest dose schedules.

C57BL mice [6] = assay: Acute toxicity tests in healthy C57BL mice; format: in vivo; conditions: observed 24 hrs
Method: (§4) The acute toxicity was assessed by treating BALB/c or C57BL mice with a single intraperitoneal (i.p.) or endovenous (e.v.) administration of different amounts, i.e. 3.125, 6.25, 12.5, 25, 50, 100 and 200 mg/kg of tested compounds.
(§5) To preliminarily establish the toxicity profile of CP, acute and repeat-dose toxicity studies were performed in BALB/c mice and in C57BL mice.

Solubility in water = format: physicochemical
[7] = system: human foreskin (HFFF2) fibroblasts; assay: Cytotoxicity towards human non-tumor cells, HFFF2; format: cell-based; conditions: MTT test, 72 hrs
IMR-32 = assay: MTT cytotoxicity, IMR-32 (brain); format: cell-based, human; conditions: MTT test, 72 hrs
[8] = system: human cancer cell lines derived from solid tumors; assay: MTT cytotoxicity, whole panel of human solid tumor cell lines; format: cell-based; conditions: Table 1 panel, maximum
Description: as §1, §2
In colon, liver, brain, ovary and prostate cell line panels IC50 values in the submicromolar range have been obtained.

BALB/c mice = assay: Acute toxicity tests in healthy BALB/c mice; format: in vivo; conditions: for LD50: BALB/c mice, observed 24 hrs
Method: as §4, §5

BxPC-3 = assay: MTT cytotoxicity, BxPC-3 (pancreas); format: cell-based, human; conditions: MTT test, 72 hrs
Description: as §1, §2

OE33 = assay: MTT cytotoxicity, OE33 (oesophagus); format: cell-based, human; conditions: MTT test, 72 hrs
Description: as §1, §2

C57BL mice [9] = assay: Maximum Tolerated Dose in C57BL mice; conditions: single ip administration, <20% weight loss and no animal death
[10] = system: human ovarian adenocarcinoma cells sensitive (A2780); assay: Cross resistance MTT test, A2780 (CDDP sensitive); format: cell-based; conditions: 72 h, probit analysis
BGC-823 = assay: MTT cytotoxicity, BGC-823 (stomach); format: cell-based, human; conditions: MTT test, 72 hrs
Description: as §1, §2

[11] = system: CDDP resistant and OXP resistant human cancer cells
[12] = human non-tumor versus malignant cells
[13] = 50 mg/kg ip days 9-11 then 30 mg/kg days 12-14

F[P-](F)(F)(F)(F)F.OC[P+](CO)(CO)[Cu-3]([P+](CO)(CO)CO)([P+](CO)(CO)CO)[P+](CO)(CO)CO [CP, [Cu(thp)4][PF6]]
IC50 (AsPC-1): 1.55 ± 0.73 µM
IC50 (T84): 0.24 ± 0.04 µM
IC50 (C-33 A): 3.26 ± 1.57 µM
IC50 (Huh-7): 760 ± 310 nM
IC50 ([1]; HCT-116 OXP (OXP resistant), MTT test, 72 h, probit analysis): 1900 ± 700 nM
R.F. (Resistant factor) ([1]; IC50 resistant/parent line: HCT-116 OXP / HCT-116): 1.4
cytotoxicity against human leukemic cell lines [2]: high cytotoxicity
IC50 (MDA-MB-231): 2110 ± 1230 nM
IC50 (MG-63): 1.43 ± 0.74 µM
IC50 (IGROV1): 0.91 ± 0.94 µM
IC50 (CaSki): 3.16 ± 1.45 µM
IC50 (SK-N-AS): 0.94 ± 0.75 µM
IC50 (U1285): 870 ± 510 nM
IC50 [3]: 1400 ± 500 nM
Selectivity index (SI) ([4]; average IC50 towards normal cells divided by average IC50 for the malignant cells): 32.4
SI fold higher than CDDP [4, 12]: about 2 fold
SI fold higher than OXP [4, 12]: ~3 fold
antitumor efficacy against animal leukaemia (L1210 murine leukemia): failed to show significant antitumor efficacy
Average tumor weight (mean ± S.D.) [5, 13]: 0.024 ± 0.03 g
Inhibition of tumor growth [5, 13]: 94.44%
tumor regression (in words) ([5]; 50 mg/kg loading then 30 mg/kg maintenance, after the sixth administration): quite complete tumor regression
LD50 (C57BL mice [6]; single e.v. administration): 115^b mg/kg
LD50 (C57BL mice [6]; single i.p. administration): 125^a mg/kg
solubility in water (Solubility in water): excellent solubility in water
IC50 [7]: 31.1 ± 3.48 µM
IC50 (IMR-32): 720 ± 180 nM
fold more cytotoxic than CDDP [8]: up to 50 fold
fold more cytotoxic than OXP [8]: ≤ 30 fold
LD50 relative to that recorded with CDDP (BALB/c mice; BALB/c and C57BL mice (Table 5)): about one order of magnitude higher
LD50 (BALB/c mice; single e.v. administration): 135^b mg/kg
LD50 (BALB/c mice; single i.p. administration): 150^a mg/kg
IC50 (BxPC-3): 1.34 ± 1.11 µM
IC50 (OE33): 1.87 ± 0.59 µM
MTD (Maximum Tolerated Dose) (C57BL mice [9]): 25.6 mg/kg
IC50 [10]: 1800 ± 400 nM
IC50 (BGC-823): 1080 ± 660 nM
IC50 fold lower than the reference metallodrugs ([11]; Table 2 cell lines, maximum): up to 15 fold
antitumor activity levels on sensitive versus resistant cell lines ([11]; sensitive and resistant cell line pairs): very similar

N.N.[Cl][Pt][Cl] [CDDP, cis-diamminodichloro platinum(II)]
IC50 (AsPC-1): 29.5 ± 1.57 µM
IC50 (T84): 7.67 ± 1.34 µM
IC50 (C-33 A): 7.42 ± 1.98 µM
IC50 (Huh-7): 3240 ± 960 nM
IC50 (MDA-MB-231): 3230 ± 1560 nM
IC50 (MG-63): 5.76 ± 1.01 µM
IC50 (IGROV1): 6.01 ± 1.73 µM
IC50 (CaSki): 31.1 ± 2.97 µM
IC50 (SK-N-AS): 18.1 ± 1.58 µM
IC50 (U1285): 4370 ± 1060 nM
Average tumor weight (mean ± S.D.) ([5]; 1.5 mg/kg ip daily from day 9): 0.118 ± 0.10 g
Inhibition of tumor growth ([5]; 1.5 mg/kg ip daily from day 9, 1.5 mg/kg): 72% and 72.68%
IC50 [7]: 20.9 ± 2.33 µM
IC50 (IMR-32): 4450 ± 980 nM
IC50 (BxPC-3): 11.5 ± 2.51 µM
IC50 (OE33): 6.87 ± 1.06 µM
MTD (Maximum Tolerated Dose) (C57BL mice [9]): 4.8 mg/kg
IC50 [10]: 2430 ± 1600 nM
IC50 (BGC-823): 3210 ± 1000 nM
